Laboratory results taken from US6737383B1, “Herbicidal oxadiazolidines” (priority 1999, dated 2004).

Legend:
bedstraw = test: Test B pre/postemergence bedstraw; assay type: in vivo, Galium aparine; details: Preemergence; for Bedstraw plant response rating: scale 0 to 10, 0 is no effect, 10 is complete control
Summary of the method: (§1)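 Herbicidal effect was estimated by eye on a ten-point control scale after plants spent twelve to sixteen days in a greenhouse following soil or foliar treatment. Foliar sprays targeted plants at one to four leaves; all doses were formulated in a non-phytotoxic solvent with surfactant.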

blackgrass = test: Test B pre/postemergence blackgrass; assay type: in vivo, Alopecurus myosuroides
Source text: (§2) Seeds of bedstraw (Galium aparine), blackgrass (Alopecurus myosuroides), surinam grass (Brachiaria decumbens), cocklebur (Xanthium strumarium), corn (Zea mays), crabgrass (Digitaria sanguinalis), giant foxtail (Setaria faberii), morningglory (Ipomoea hederacea), pigweed (Amaranthus retroflexus), rape (Brassica napus), soybean (Glycine max), sugar beet (Beta vulgaris), velvetleaf (Abutilon theophrasti), wheat (Triticum aestivum), wild oat (Avena fatua) and purple nutsedge (Cyperus rotundus) tubers were planted and treated preemnergence with test chemicals formulated in a non-phytotoxic solvent mixture which included a surfactant.
(§3) At the same time, these crop and weed species were also treated with postemergence applications of test chemicals formulated in the same manner. Plants ranged in height from 2 to 18 cm (1- to 4-leaf stage) for postemergence treatments. Plant species in the flood test consisted of rice (Oryza sativa), smallflower flatsedge (Cyperus difformis), duck salad (Heteranthera limosa) and bamyardgrass (Echinochloa crus-galli) grown to the 2-leaf stage for testing. Treated plants and controls were maintained in a greenhouse for twelve to sixteen days, after which all species were compared to controls and visually evaluated. Plant response ratings, summarized in Table B, are based on a scale of 0 to 10 where 0 is no effect and 10 is complete control. A dash (−) response means no test result.

surinam grass = test: Test B pre/postemergence surinam grass; assay type: in vivo, Brachiaria decumbens
Source text: as §2, §3

cocklebur = test: Test B pre/postemergence cocklebur; assay type: in vivo, Xanthium strumarium
Source text: as §2, §3

corn = test: Test B pre/postemergence corn; assay type: in vivo, Zea mays
Source text: as §2, §3

crabgrass = test: Test B pre/postemergence crabgrass; assay type: in vivo, Digitaria sanguinalis
Source text: as §2, §3

giant foxtail = test: Test B pre/postemergence giant foxtail; assay type: in vivo, Setaria faberii
Source text: as §2, §3

morningglory = test: Test B pre/postemergence morningglory; assay type: in vivo, Ipomoea hederacea
Source text: as §2, §3

pigweed = test: Test B pre/postemergence pigweed; assay type: in vivo, Amaranthus retroflexus
Source text: as §2, §3

rape = test: Test B pre/postemergence rape; assay type: in vivo, Brassica napus
Source text: as §2, §3

soybean = test: Test B pre/postemergence soybean; assay type: in vivo, Glycine max
Summary of the method: as §1

sugar beet = test: Test B pre/postemergence sugar beet; assay type: in vivo, Beta vulgaris
Source text: as §2, §3

velvetleaf = test: Test B pre/postemergence velvetleaf; assay type: in vivo, Abutilon theophrasti
Summary of the method: as §1

wheat = test: Test B pre/postemergence wheat; assay type: in vivo, Triticum aestivum
Source text: as §2, §3

wild oat = test: Test B pre/postemergence wild oat; assay type: in vivo, Avena fatua
Summary of the method: as §1

purple nutsedge = test: Test B pre/postemergence purple nutsedge; assay type: in vivo, Cyperus rotundus; details: Postemergence, Rate 500 g/ha; scale 0 to 10, 0 is no effect, 10 is complete control
Source text: as §2, §3

[1] = Postemergence, Rate 62 g/ha, scale of 0 to 10, 0 is no effect, 10 is complete control
[2] = Postemergence, Rate 125 g/ha, scale 0 to 10, 0 is no effect, 10 is complete control
[3] = Postemergence, Rate 250 g/ha, scale 0 to 10
[4] = Postemergence, Rate 500 g/ha, scale 0 to 10, 0 is no effect, 10 is complete control
[5] = Preemergence, Rate 62 g/ha, scale of 0 to 10 where 0 is no effect and 10 is complete control
[6] = Preemergence, Rate 125 g/ha, scale 0 to 10, 0 is no effect, 10 is complete control
[7] = Preemergence, Rate 250 g/ha, scale 0 to 10, 0 is no effect, 10 is complete control
[8] = Preemergence, Rate 500 g/ha, scale of 0 to 10 where 0 is no effect and 10 is complete control

## CC(C)N(C(=O)n1oc(=O)n(CCc2ccccc2)c1=O)c1ccc(F)cc1F [Compound 508]
bedstraw; Rate 62 g/ha, scale of 0 to 10 where 0 is no effect and 10 is complete control
  Plant response rating, Bedstraw: 0
bedstraw; Rate 125 g/ha
  Bedstraw plant response rating: 0
bedstraw; Rate 250 g/ha
  Bedstraw plant response rating: 0
bedstraw; Rate 500 g/ha
  Bedstraw plant response rating: 0
blackgrass; [1]
  Blackgrass plant response rating: 0
blackgrass; [2]
  Blackgrass plant response rating: 3
blackgrass; [3]
  Blackgrass plant response rating: 6
blackgrass; [4]
  Plant response rating, Blackgrass: 6
blackgrass; [5]
  Plant response rating, Blackgrass: 1
blackgrass; [6]
  Blackgrass plant response rating: 3
blackgrass; [7]
  Blackgrass plant response rating: 5
blackgrass; [8]
  Blackgrass plant response rating: 8
Surinam grass; [1]
  B. signalgrass plant response rating: 0
Surinam grass; [2]
  B. signalgrass plant response rating: 0
Surinam grass; Postemergence, Rate 250 g/ha, scale 0 to 10, 0 no effect, 10 complete control
  B. signalgrass plant response rating: 3
Surinam grass; [4]
  Plant response rating, B. signalgrass: 3
Surinam grass; [5]
  Plant response rating, B. signalgrass: 4
Surinam grass; [6]
  B. signalgrass plant response rating: 7
Surinam grass; [7]
  B. signalgrass plant response rating: 8
Surinam grass; Preemergence, Rate 500 g/ha, scale 0 to 10, 0 is no effect, 10 is complete control
  B. signalgrass plant response rating: 8
cocklebur; [1]
  Cocklebur plant response rating: 0
cocklebur; [2]
  Cocklebur plant response rating: 1
cocklebur; [3]
  Cocklebur plant response rating: 4
cocklebur; [4]
  Plant response rating, Cocklebur: 4
cocklebur; [5]
  Plant response rating, Cocklebur: 0
cocklebur; [6]
  Cocklebur plant response rating: 0
cocklebur; [7]
  Cocklebur plant response rating: 0
cocklebur; [8]
  Cocklebur plant response rating: 0
corn; [1]
  Corn plant response rating: 0
corn; [2]
  Corn plant response rating: 0
corn; [3]
  Corn plant response rating: 0
corn; [4]
  Plant response rating, Corn: 3
corn; [5]
  Plant response rating, Corn: 0
corn; [6]
  Corn plant response rating: 0
corn; [8]
  Corn plant response rating: 4
crabgrass; [1]
  Crabgrass plant response rating: 9
crabgrass; [2]
  Crabgrass plant response rating: 9
crabgrass; [3]
  Crabgrass plant response rating: 9
crabgrass; [4]
  Plant response rating, Crabgrass: 9
crabgrass; [5]
  Plant response rating, Crabgrass: 6
crabgrass; [6]
  Crabgrass plant response rating: 9
crabgrass; [8]
  Crabgrass plant response rating: 10
Giant foxtail; [1]
  Giant foxtail plant response rating: 8
Giant foxtail; [2]
  Giant foxtail plant response rating: 8
Giant foxtail; [4]
  Plant response rating, Giant foxtail: 8
Giant foxtail; [5]
  Plant response rating, Giant foxtail: 10
Giant foxtail; [6]
  Giant foxtail plant response rating: 10
Giant foxtail; [8]
  Giant foxtail plant response rating: 10
morningglory; [1]
  Morningglory plant response rating: 3
morningglory; [2]
  Morningglory plant response rating: 3
morningglory; [4]
  Plant response rating, Morningglory: 7
morningglory; [5]
  Plant response rating, Morningglory: 0
morningglory; [6]
  Morningglory plant response rating: 0
morningglory; [8]
  Morningglory plant response rating: 0
pigweed; [1]
  Redroot pigweed plant response rating: 3
pigweed; [2]
  Redroot pigweed plant response rating: 7
pigweed; [4]
  Plant response rating, Redroot pigweed: 9
pigweed; [5]
  Plant response rating, Redroot pigweed: 7
pigweed; [6]
  Redroot pigweed plant response rating: 8
pigweed; [8]
  Redroot pigweed plant response rating: 10
rape; [1]
  Rape plant response rating: 1
rape; [2]
  Rape plant response rating: 5
rape; [4]
  Plant response rating, Rape: 8
rape; [5]
  Plant response rating, Rape: 0
rape; [6]
  Rape plant response rating: 0
rape; [8]
  Rape plant response rating: 3
soybean; [1]
  Soybean plant response rating: 4
soybean; [2]
  Soybean plant response rating: 4
soybean; [4]
  Plant response rating, Soybean: 5
soybean; [5]
  Plant response rating, Soybean: 0
soybean; [6]
  Soybean plant response rating: 0
soybean; [8]
  Soybean plant response rating: 0
Sugar beet; [1]
  Sugarbeets plant response rating: 0
Sugar beet; [2]
  Sugarbeets plant response rating: 1
Sugar beet; [4]
  Plant response rating, Sugarbeets: 9
Sugar beet; [5]
  Plant response rating, Sugarbeets: 1
Sugar beet; [6]
  Sugarbeets plant response rating: 1
Sugar beet; [8]
  Sugarbeets plant response rating: 6
velvetleaf; [1]
  Velvetleaf plant response rating: 0
velvetleaf; [2]
  Velvetleaf plant response rating: 1
velvetleaf; [4]
  Plant response rating, Velvetleaf: 2
velvetleaf; [5]
  Plant response rating, Velvetleaf: 0
velvetleaf; [6]
  Velvetleaf plant response rating: 0
velvetleaf; [8]
  Velvetleaf plant response rating: 0
wheat; [1]
  Wheat plant response rating: 0
wheat; [2]
  Wheat plant response rating: 0
wheat; [4]
  Plant response rating, Wheat: 0
wheat; [5]
  Plant response rating, Wheat: 0
wheat; [6]
  Wheat plant response rating: 0
wheat; [8]
  Wheat plant response rating: 2
Wild oat; [1]
  Wild oats plant response rating: 0
Wild oat; [2]
  Wild oats plant response rating: 0
Wild oat; [4]
  Plant response rating, Wild oats: 4
Wild oat; [5]
  Plant response rating, Wild oats: 3
Wild oat; [6]
  Wild oats plant response rating: 4
Wild oat; [8]
  Wild oats plant response rating: 7
Purple nutsedge
  Plant response rating, Nutsedge: 0
